The source of these data is the NIST ThermoML archive (doi:10.1016/j.jct.2005.08.002).

± gives the expanded uncertainty stated by the source.

The first series in a line: xn = mol fraction of the nth substance listed. Conditions: 293.15 K; 101 kPa; Liquid; Capillary tube (Ostwald / Ubbelohde) method; x2 = 0.
As usually defined, the viscosity is the resistance of a fluid to flow. In the case of `CC(C)=O` [acetone] + CC1CCCC1, the viscosity was found to be 0.32 ± 0.007 mPa·s.

In the case of `CCC(C)=O` [butanone] + CC1CCCC1, the viscosity stood at 0.398 ± 0.009 mPa·s.

For the compound `CCCC(C)=O` [pentan-2-one] + CC1CCCC1, the viscosity is reported as 0.496 ± 0.011 mPa·s.

Staying with this series, now noted: 293.15 K; 101 kPa; Liquid; Sing-around technique in a fixed-path interferometer; x2 = 0.
The term speed of sound denotes how fast a sound wave travels through the sample. In the case of `CC(C)=O` [acetone] + CC1CCCC1, the speed of sound was found to be 1185 ± 2 m/s.

As for `CCC(C)=O` [butanone] + CC1CCCC1, the speed of sound was 1213 ± 2 m/s.

Consider `CCCC(C)=O` [pentan-2-one] + CC1CCCC1, for which the speed of sound came out at 1233 ± 2 m/s.

The same series, now with this note: 293.15 K; 101 kPa; Liquid; Vibrating tube method; x2 = 0.
As usually defined, the mass density is mass per unit of volume. As to `CC(C)=O` [acetone] + CC1CCCC1, the mass density is recorded as 791.11 ± 0.15 kg/m3.

For the compound `CCC(C)=O` [butanone] + CC1CCCC1, the mass density was determined as 804.95 ± 0.23 kg/m3.

Turning to `CCCC(C)=O` [pentan-2-one] + CC1CCCC1, the mass density stood at 806.26 ± 0.23 kg/m3.

The same series, now with this note: 298.15 K; 101 kPa; Liquid; Capillary tube (Ostwald / Ubbelohde) method; x2 = 0.
Turning to `CC(C)=O` [acetone] + CC1CCCC1, the viscosity stood at 0.306 ± 0.007 mPa·s.

In the case of `CCC(C)=O` [butanone] + CC1CCCC1, the viscosity is reported as 0.378 ± 0.008 mPa·s.

With `CCCC(C)=O` [pentan-2-one] + CC1CCCC1, the viscosity was determined as 0.469 ± 0.01 mPa·s.

The same series, now with this note: 298.15 K; 101 kPa; Liquid; Sing-around technique in a fixed-path interferometer; x2 = 0.
For `CC(C)=O` [acetone] + CC1CCCC1, the speed of sound stood at 1162 ± 2 m/s.

On to `CCC(C)=O` [butanone] + CC1CCCC1, for which the speed of sound was 1192 ± 2 m/s.

As for `CCCC(C)=O` [pentan-2-one] + CC1CCCC1, the speed of sound amounted to 1213 ± 2 m/s.

Still in this series, the particulars now being: 298.15 K; 101 kPa; Liquid; Vibrating tube method; x2 = 0.
Consider `CC(C)=O` [acetone] + CC1CCCC1, for which the mass density was 785.41 ± 0.15 kg/m3.

For `CCC(C)=O` [butanone] + CC1CCCC1, the mass density came out at 799.74 ± 0.23 kg/m3.

As to `CCCC(C)=O` [pentan-2-one] + CC1CCCC1, the mass density is 801.42 ± 0.23 kg/m3.

Staying with this series, now noted: 303.15 K; 101 kPa; Liquid; Capillary tube (Ostwald / Ubbelohde) method; x2 = 0.
`CC(C)=O` [acetone] + CC1CCCC1: the viscosity is reported as 0.292 ± 0.006 mPa·s.

On to `CCC(C)=O` [butanone] + CC1CCCC1, for which the viscosity is recorded as 0.36 ± 0.008 mPa·s.

On to `CCCC(C)=O` [pentan-2-one] + CC1CCCC1, for which the viscosity was determined as 0.444 ± 0.009 mPa·s.

The same series, now with this note: 303.15 K; 101 kPa; Liquid; Sing-around technique in a fixed-path interferometer; x2 = 0.
Take `CC(C)=O` [acetone] + CC1CCCC1: the speed of sound turned out to be 1140 ± 2 m/s.

As to `CCC(C)=O` [butanone] + CC1CCCC1, the speed of sound amounted to 1171 ± 2 m/s.

Turning to `CCCC(C)=O` [pentan-2-one] + CC1CCCC1, the speed of sound is listed as 1192 ± 2 m/s.

Still in this series, the particulars now being: 303.15 K; 101 kPa; Liquid; Vibrating tube method; x2 = 0.
For the compound `CC(C)=O` [acetone] + CC1CCCC1, the mass density amounted to 779.66 ± 0.15 kg/m3.

As to `CCC(C)=O` [butanone] + CC1CCCC1, the mass density was found to be 794.48 ± 0.23 kg/m3.

Consider `CCCC(C)=O` [pentan-2-one] + CC1CCCC1, for which the mass density is on record as 796.58 ± 0.23 kg/m3.

Assay in a further series: not given
Conditions: 293.15 K; 101 kPa; Liquid; Capillary tube (Ostwald / Ubbelohde) method.
As to `CC(C)=O` [acetone], the viscosity is recorded as 0.32 ± 0.007 mPa·s.

Turning to `CCC(C)=O` [butanone], the viscosity is given as 0.398 ± 0.009 mPa·s.

As for `CC1CCCC1` [methylcyclopentane], the viscosity stood at 0.504 ± 0.016 mPa·s.

As to `CCCC(C)=O` [pentan-2-one], the viscosity turned out to be 0.496 ± 0.011 mPa·s.

Still in this series, the particulars now being: 293.15 K; 101 kPa; Liquid; Sing-around technique in a fixed-path interferometer.
Take `CC(C)=O` [acetone]: the speed of sound was 1185 ± 2 m/s.

As for `CCC(C)=O` [butanone], the speed of sound was determined as 1213 ± 2 m/s.

In the case of `CC1CCCC1` [methylcyclopentane], the speed of sound is given as 1197 ± 5 m/s.

For the compound `CCCC(C)=O` [pentan-2-one], the speed of sound turned out to be 1233 ± 2 m/s.

Staying with this series, now noted: 293.15 K; 101 kPa; Liquid; Vibrating tube method.
Consider `CC(C)=O` [acetone], for which the mass density came out at 791.11 ± 0.15 kg/m3.

For `CCC(C)=O` [butanone], the mass density was found to be 804.95 ± 0.23 kg/m3.

For `CC1CCCC1` [methylcyclopentane], the mass density is 746.64 ± 2 kg/m3.

On to `CCCC(C)=O` [pentan-2-one], for which the mass density was 806.26 ± 0.23 kg/m3.

The same series, now with this note: 298.15 K; 101 kPa; Liquid; Capillary tube (Ostwald / Ubbelohde) method.
As for `CC(C)=O` [acetone], the viscosity came to 0.306 ± 0.007 mPa·s.

As to `CCC(C)=O` [butanone], the viscosity turned out to be 0.378 ± 0.008 mPa·s.

On to `CC1CCCC1` [methylcyclopentane], for which the viscosity is 0.476 ± 0.016 mPa·s.

For the compound `CCCC(C)=O` [pentan-2-one], the viscosity is listed as 0.469 ± 0.01 mPa·s.

Staying with this series, now noted: 298.15 K; 101 kPa; Liquid; Sing-around technique in a fixed-path interferometer.
For the compound `CC(C)=O` [acetone], the speed of sound came out at 1162 ± 2 m/s.

In the case of `CCC(C)=O` [butanone], the speed of sound is given as 1192 ± 2 m/s.

With `CC1CCCC1` [methylcyclopentane], the speed of sound was determined as 1174 ± 5 m/s.

Regarding `CCCC(C)=O` [pentan-2-one], the speed of sound was 1213 ± 2 m/s.

Still in this series, the particulars now being: 298.15 K; 101 kPa; Liquid; Vibrating tube method.
As for `CC(C)=O` [acetone], the mass density is recorded as 785.41 ± 0.15 kg/m3.

In the case of `CCC(C)=O` [butanone], the mass density came to 799.74 ± 0.23 kg/m3.

Regarding `CC1CCCC1` [methylcyclopentane], the mass density was 741.94 ± 2 kg/m3.

With `CCCC(C)=O` [pentan-2-one], the mass density came to 801.42 ± 0.23 kg/m3.

Still in this series, the particulars now being: 303.15 K; 101 kPa; Liquid; Capillary tube (Ostwald / Ubbelohde) method.
`CC(C)=O` [acetone]: the viscosity was determined as 0.292 ± 0.006 mPa·s.

For `CCC(C)=O` [butanone], the viscosity turned out to be 0.36 ± 0.008 mPa·s.

For `CC1CCCC1` [methylcyclopentane], the viscosity stood at 0.45 ± 0.015 mPa·s.

With `CCCC(C)=O` [pentan-2-one], the viscosity is listed as 0.444 ± 0.009 mPa·s.

The same series, now with this note: 303.15 K; 101 kPa; Liquid; Sing-around technique in a fixed-path interferometer.
As for `CC(C)=O` [acetone], the speed of sound is recorded as 1140 ± 2 m/s.

Take `CCC(C)=O` [butanone]: the speed of sound is listed as 1171 ± 2 m/s.

For `CC1CCCC1` [methylcyclopentane], the speed of sound came to 1150 ± 5 m/s.

With `CCCC(C)=O` [pentan-2-one], the speed of sound was determined as 1192 ± 2 m/s.

The series is the same for the next values; noted with them: 303.15 K; 101 kPa; Liquid; Vibrating tube method.
As for `CC(C)=O` [acetone], the mass density was determined as 779.66 ± 0.15 kg/m3.

As to `CCC(C)=O` [butanone], the mass density turned out to be 794.48 ± 0.23 kg/m3.

For `CC1CCCC1` [methylcyclopentane], the mass density worked out at 737.21 ± 1.9 kg/m3.

Consider `CCCC(C)=O` [pentan-2-one], for which the mass density worked out at 796.58 ± 0.23 kg/m3.
